Several values for one entry are separate records, joined by “and”; a condition that tells them apart may be missing. Equal entries are not always repeated.
What was measured:
[1] = tested on: PHSVX Phaseolus vulgaris (Garden bean); assay: Ipfencarbazone biostimulant effect, early post emergence foliar application, greenhouse pots, plant height: dry bean; format: in vivo; details: PHSVX PEROLA
Source text: (§1) The original objective of this Example was to evaluate the herbicidal effect of ipfencarbazone when applied as a post emergent treatment to a range of selected crops and weeds. Unexpectedly, crop plant growth stimulation was observed. The actual species of weeds and crops are listed in the summary data tabulated below and in FIGS. 1-13. By convention each plant species has a Bayer code (5-letter name) with the scientific name for the plant referenced in FIGS. 1-13. In each Figure, each tray contains the same configuration of weeds and/or crops. In each Figure there is one replication of each treatment (six treatments in total). The top three photographs in each Figure show the Bayer Codes and bottom three photographs are aligned with the top three facilitating viewing of the same plant species. Throughout the Examples various abbreviations as conventional shorthand notation and will be appreciated by those skilled in the art. Some exemplary abbreviations include, “CV”=Co-efficient of Variation,” “LSD”=Least Significant Difference” (G/L (gram per L) AND GA/L (gram of active ingredient per L); “SC”=suspension concentrate formulation. The diluent in all treatments was water. By convention factors that are identical in all treatments (e.g. diluent and surfactant) are not listed in each treatment.
(§2) Methods: The indicated size pots (see Tables below) are filled with a specific soil, the soil properties being indicated below. The referenced crops and weeds are planted by hand in each pot. […] The experiments include six treatments each replicated three times on each crop/weed species. At a specific time after emergence each crop and weed species was treated with ipfencarbazone plus a non-ionic surfactant (NIS). In the present Example, the surfactant employed was ENERGIC™ (non-ionic surfactant). The application timing is indicated in each of the Tables (1 or 2 leaf stage) below. Ipfencarbazone plus surfactant was diluted in water and applied at a rate equivalent to about 250 L/ha. Ipfencarbazone was applied using a track sprayer. After treatment, the pots were randomized in a greenhouse. At each assessment (indicated by “days after treatment” or DAT) the height of each plant was measured. The letters next to each mean indicate the level of statistical significance.
(§3) Replications: 3, Untreated treatments: 1, Design: Randomized Complete Block (RCB), Treatment units: Treated ‘Plot’ experimental unit size, Dry Form. Unit: %, Treated ‘Plot’ experimental unit size Width: 1 meter, Treated ‘Plot’ experimental unit size Length: 1.4 meters, Application volume: 250 L/ha, Mix size: 0.15 liters, […]

[2] = tested on: BRADC Brachiaria decumbens (Surinam grass); assay: Ipfencarbazone biostimulant effect, early post emergence foliar application, greenhouse pots, plant height: Surinam grass; format: in vivo; details: for HEIGHT, percent of untreated check (APoC) / HEIGHT, treatment mean: BRADC BASILISK; for Plant HEIGHT, Mean / Plant HEIGHT, single plots: Surinam grass BASILISK
Source text: as §1, §2, §3

[3] = 15 DA-A, 62.5 g ai/ha + Energic NIS 0.2 % v/v
[4] = 15 DA-A, 125 g ai/ha + Energic NIS 0.2 % v/v
[5] = 15 DA-A, 500 g ai/ha + Energic NIS 0.2 % v/v
[6] = 28 DA-A, 62.5 g ai/ha + Energic NIS 0.2 % v/v
[7] = 28 DA-A, 125 g ai/ha + Energic NIS 0.2 % v/v
[8] = 28 DA-A, 250 g ai/ha + Energic NIS 0.2 % v/v
[9] = 28 DA-A, 500 g ai/ha + Energic NIS 0.2 % v/v

CC(C)N(C(=O)n1cnn(-c2ccc(Cl)cc2Cl)c1=O)c1ccc(F)cc1F [ARY-0572-001, ipfencarbazone]
HEIGHT, single plots (replicates) ([1]; 250 g ai/ha, 15 DA-A, plots 104, 201, 306): 0.0 cm (2×) and 1.7 cm
HEIGHT, percent of untreated check (APoC) ([1]; 250 g ai/ha, 28 DA-A, AS square root transformation): (2.5%)
HEIGHT, treatment mean ([1]; 250 g ai/ha, 28 DA-A, AS square root transformation (t)): 0.3 a cm and 0.3t cm
HEIGHT, single plots (replicates) ([1]; 250 g ai/ha, 28 DA-A, plots 104, 201, 306): 0.0 cm (2×) and 2.0 cm
HEIGHT, percent of untreated check (APoC) ([1]; 500 g ai/ha, 15 DA-A): (6.7%)
HEIGHT, treatment mean ([1]; 500 g ai/ha, 15 DA-A): 0.7 c cm and 0.7 cm
HEIGHT, single plots (replicates) ([1]; 500 g ai/ha, 15 DA-A, plots 105, 202, 301): 2.0 cm and 0.0 cm (2×)
HEIGHT, percent of untreated check (APoC) ([1]; 500 g ai/ha, 28 DA-A, AS square root transformation): (155.1%)
HEIGHT, treatment mean ([1]; 500 g ai/ha, 28 DA-A, AS square root transformation (t)): 20.2 a cm and 20.2t cm
HEIGHT, single plots (replicates) ([1]; 500 g ai/ha, 28 DA-A, plots 105, 202, 301): 73.0 cm and 0.0 cm and 25.0 cm
HEIGHT, percent of untreated check (APoC) ([1]; 1000 g ai/ha, 15 DA-A): (59.0%)
HEIGHT, treatment mean ([1]; 1000 g ai/ha, 15 DA-A): 5.8 b cm and 5.8 cm
HEIGHT, single plots (replicates) ([1]; 1000 g ai/ha, 15 DA-A, plots 106, 203, 304): 5.0 cm and 6.7 cm and 5.8 cm
HEIGHT, percent of untreated check (APoC) ([1]; 1000 g ai/ha, 28 DA-A, AS square root transformation): (51.7%)
HEIGHT, treatment mean ([1]; 1000 g ai/ha, 28 DA-A, AS square root transformation (t)): 6.7 a cm and 6.7t cm
HEIGHT, single plots (replicates) ([1]; 1000 g ai/ha, 28 DA-A, plots 106, 203, 304): 6.3 cm and 7.3 cm and 6.7 cm
HEIGHT, percent of untreated check (APoC) ([2]; 62.5 g ai/ha, 15 DA-A): (167.8%)
HEIGHT, treatment mean ([2]; 62.5 g ai/ha, 15 DA-A): 33.8 a cm
HEIGHT, percent of untreated check (APoC) ([2]; 62.5 g ai/ha, 28 DA-A): (164.1%)
HEIGHT, treatment mean ([2]; 62.5 g ai/ha, 28 DA-A): 55.4 bc cm
HEIGHT, percent of untreated check (APoC) ([2]; 125 g ai/ha, 15 DA-A): (139.1%)
HEIGHT, treatment mean ([2]; 125 g ai/ha, 15 DA-A): 28.1 ab cm
HEIGHT, percent of untreated check (APoC) ([2]; 125 g ai/ha, 28 DA-A): (146.7%)
HEIGHT, treatment mean ([2]; 125 g ai/ha, 28 DA-A): 49.6 cd cm
HEIGHT, percent of untreated check (APoC) ([2]; 250 g ai/ha, 15 DA-A): (141.3%)
HEIGHT, treatment mean ([2]; 250 g ai/ha, 15 DA-A): 28.5 ab cm
HEIGHT, percent of untreated check (APoC) ([2]; 250 g ai/ha, 28 DA-A): (233.6%)
HEIGHT, treatment mean ([2]; 250 g ai/ha, 28 DA-A): 78.9 a cm
HEIGHT, percent of untreated check (APoC) ([2]; 500 g ai/ha, 15 DA-A): (93.1%)
HEIGHT, treatment mean ([2]; 500 g ai/ha, 15 DA-A): 18.8 bc cm
HEIGHT, percent of untreated check (APoC) ([2]; 500 g ai/ha, 28 DA-A): (210.5%)
HEIGHT, treatment mean ([2]; 500 g ai/ha, 28 DA-A): 71.1 ab cm
HEIGHT, percent of untreated check (APoC) ([2]; 1000 g ai/ha, 15 DA-A): (54.0%)
HEIGHT, treatment mean ([2]; 1000 g ai/ha, 15 DA-A): 10.9 c cm
HEIGHT, percent of untreated check (APoC) ([2]; 1000 g ai/ha, 28 DA-A): (74.0%)
HEIGHT, treatment mean ([2]; 1000 g ai/ha, 28 DA-A): 25.0 e cm
Plant HEIGHT, Mean [2, 3]: 33.8 cm
Plant HEIGHT, single plots [2, 3]: 26.8 cm and 44.7 cm and 30.0 cm
Plant HEIGHT, Mean [2, 4]: 28.1 cm
Plant HEIGHT, single plots [2, 4]: 27.8 cm and 23.7 cm and 32.7 cm
Plant HEIGHT, Mean ([2]; 15 DA-A, 250 g ai/ha + Energic NIS 0.2 % v/v): 28.5 cm
Plant HEIGHT, Mean [2, 5]: 18.8 cm
Plant HEIGHT, single plots [2, 5]: 21.3 cm and 13.7 cm
Plant HEIGHT, Mean ([2]; 15 DA-A, 1000 g ai/ha + Energic NIS 0.2 % v/v): 10.9 cm
Plant HEIGHT, Mean [2, 6]: 55.4 cm
Plant HEIGHT, single plots [2, 6]: 48.3 cm and 76.0 cm and 42.0 cm
Plant HEIGHT, Mean [2, 7]: 49.6 cm
Plant HEIGHT, single plots [2, 7]: 53.0 cm and 44.7 cm and 51.0 cm
Plant HEIGHT, Mean [2, 8]: 78.9 cm
Plant HEIGHT, single plots [2, 8]: 89.7 cm and 91.7 cm and 55.3 cm
Plant HEIGHT, Mean [2, 9]: 71.1 cm
Plant HEIGHT, single plots [2, 9]: 67.3 cm and 77.0 cm and 69.0 cm
Plant HEIGHT, Mean ([2]; 28 DA-A, 1000 g ai/ha + Energic NIS 0.2 % v/v): 25.0 cm

Source: patent US20170318812A1, “Plant and Crop Growth Regulating/Biostimulant Formulations and Methods of Use” (Arysta Lifescience North America, LLC, priority 2014, published 2017)
